Source: the NIST ThermoML archive (doi:10.1016/j.jct.2013.12.025)

Assay: xn = mol fraction of the nth substance listed
Conditions: 101 kPa, Liquid, Vibrating tube method

C=C[Si](C)(C)O[Si](C)(C)C=C [1,3-diethenyl-1,1,3,3-tetramethyldisiloxane] + O=[N+]([O-])c1ccccc1
mass density [kg/m3]
Conditions	283.15 K	288.15 K	293.15 K	298.15 K	303.15 K
x1 = 0.05	1176.35	1171.43	1166.52	1161.69	1156.82
x1 = 0.1	1142.71	1137.83	1132.97	1128.22	1123.45
x1 = 0.15	1111.83	1106.98	1102.13	1097.43	1092.67
x1 = 0.2	1083.35	1078.52	1073.67	1068.96	1064.2
x1 = 0.25	1057.23	1052.41	1047.57	1042.87	1038.12
x1 = 0.3	1033.06	1028.23	1023.4	1018.69	1013.92
x1 = 0.3508	1010.38	1005.54	1000.74	996.01	991.23
x1 = 0.4001	989.98	985.14	980.32	975.57	970.77
x1 = 0.4501	970.75	965.91	961.08	956.32	951.52
x1 = 0.4999	952.93	948.07	943.22	938.45	933.61
x1 = 0.55	936.17	931.3	926.44	921.66	916.81
x1 = 0.6001	920.46	915.57	910.7	905.91	901.03
x1 = 0.6487	906.15	901.26	896.39	891.58	886.71
x1 = 0.6999	891.87	887	882.12	877.3	872.42
x1 = 0.7499	878.8	873.92	869.03	864.21	859.31
x1 = 0.7999	866.41	861.51	856.6	851.77	846.84
x1 = 0.8497	854.66	849.77	844.87	840.06	835.12
x1 = 0.9	843.43	838.53	833.62	828.8	823.86
x1 = 0.9499	832.79	827.88	822.98	818.14	813.2
x1 = 1	822.64	817.73	812.82	807.98	803.03
